Experimental data reported in patent US20210353579A1, “HIGH PENETRATION COMPOSITIONS AND USES THEREOF” (Techfields Pharma Co., Ltd., priority 2006, published 2021).
Where two headings read alike, the source gives them in different places.

Key:
[1] = tested on: human skin tissue; details: pH 7.4
[2] = tested on: mice; experiment: Analgesic activity, acetic acid writhing; format: in vivo
Procedure: The prodrug compounds are administered either transdermally or orally. The parent compounds are administered orally. The number of writhing that occurred when mice are administered the acetic acid solution are counted, and the rate of inhibition based on the control group which was not pretreated with any test compounds is calculated. […] The A group is the control group.

[3] = tested on: rats; experiment: Antipyretic activity, E. coli suspension as pyrogen; format: in vivo; details: in °C (unit assumed)
Procedure: Rats are administered with sterilized E. coli suspension as a pyrogen. Each group of rats are administered with a prodrug compounds or parent compounds at a dosage specified below. The prodrug compounds are administered either orally or transdermally. The parent compounds are administered orally.

[4] = Plasma levels after transdermal administration to hairless mice; format: in vivo; details: mouse, in vivo
Procedure: Tested compounds (20% solution or suspension in 1 mL isopropanol) are administered transdermally to the skin of intact hairless mice. The plasma levels of the parent compounds are determined by HPLC.

[5] = tested on: rat;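 note: acute toxicity in rats expressed as LD50, determined for both prodrugs and their parent compounds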
Procedure: The acute toxicity of the prodrug compounds and parent compounds are measured by LD50 of rat.

[6] = 50 mg/kg transdermally, 60 minutes before acetic acid
[7] = 100 mg/kg transdermally, 30 min before acetic acid
[8] = 50 mg/kg transdermally, 30 min before acetic acid
[9] = 50 mg/kg orally, 30 min before acetic acid
[10] = 100 mg/kg orally, 30 min before acetic acid
[11] = 100 mg/kg transdermally, 60 minutes before acetic acid

Row | Compound | In vitro penetration rate (apparent flux), prodrug compounds [1] | Peak plasma concentration of parent compound after prodrug compound [4] | t, time to peak plasma level of parent compound after prodrug compound [4] | LD50 of HPP ([5]; rats) | % (rate of writhing inhibition) [2, 7] | No. of Writhing [2, 7] | body temperature, t = 0 min ([3]; 100 mg/kg transdermally) | body temperature, t = 90 min ([3]; 100 mg/kg transdermally) | body temperature, t = 180 min ([3]; 100 mg/kg transdermally) | body temperature, t = 270 min ([3]; 100 mg/kg transdermally) | also measured
1 | 4-N,N-dimethylaminobutyryloxy-2-methyl-N-[5-Methyl-3-isoxolyl-2H-1,2-benzothiazine-3-carboxamide 1,1-dioxide].HCl | 1800 μg/cm^2/h | 20 mg/L | 50 min | 570 mg/kg | – | – | – | – | – | – | % (rate of writhing inhibition) [2, 6]: 55%; No. of Writhing [2, 6]: 15.8; body temperature, t = 0 min ([3]; 25 mg/kg transdermally): 37.52 ± 0.06; body temperature, t = 90 min ([3]; 25 mg/kg transdermally): 36.62 ± 0.07; body temperature, t = 180 min ([3]; 25 mg/kg transdermally): 36.53 ± 0.06; body temperature, t = 270 min ([3]; 25 mg/kg transdermally): 36.60 ± 0.05
2 | CC(=O)O.CCN(CC)CCOC(=O)C(C)c1ccc(C(=O)c2cccs2)cc1 (stereo not drawn) [diethylaminoethyl α-methyl-4-(2-thienylcarbonyl)benzeneacetate.AcOH] | 3000 μg/cm^2/h | 2000 mg/L | 50 min | 800 mg/kg | 55% | 15.7 | 37.28 ± 0.06 | 36.65 ± 0.06 | 36.58 ± 0.08 | 36.45 ± 0.07 | –
3 | CC(=O)O.CCN(CC)CCOC(=O)CC1=C(C)/C(=C/c2ccc([S+](C)[O-])cc2)c2ccc(F)cc21 (stereo not drawn) [diethylaminoethyl (Z)-5-fluoro-2-methyl-1-[(4-methylsulfinyl)phenylmethylene]-1H-indene-3-acetate.AcOH] | 900 μg/cm^2/h | 20 mg/L | 50 min | 500 mg/kg | 59% | 14.2 | 37.28 ± 0.06 | 36.65 ± 0.05 | 36.62 ± 0.08 | 36.58 ± 0.07 | –
4 | CC(=O)O.CCN(CC)CCOC(=O)C(Cl)c1ccc(C2CCCCC2)c(Cl)c1 (stereo not drawn) [diethylaminoethyl α,3-dichloro-4-cyclohexylbenzeneacetate.AcOH] | 3800 μg/cm^2/h | 2000 mg/L | 50 min | 600 mg/kg | 57% | 15.2 | 37.25 ± 0.06 | 36.75 ± 0.05 | 36.62 ± 0.08 | 36.58 ± 0.07 | –
5 | CC(=O)O.CCN(CC)CCOC(=O)C(C)c1ccc2cc(OC)ccc2c1 (stereo not drawn) [diethylaminoethyl 2-(6-methoxy-2-naphthyl)propionate.AcOH] | 3500 μg/cm^2/h | 2000 mg/L | 50 min | 2200 mg/kg | 51% | 17.1 | 37.33 ± 0.07 | 36.80 ± 0.06 | 36.72 ± 0.05 | 36.50 ± 0.08 | –
6 | CC(=O)O.CCN(CC)CCOC(=O)C(C)c1cccc(C(=O)c2ccccc2)c1 (stereo not drawn) [diethylaminoethyl 2-(3-benzoylphenyl) propionate.AcOH] | 1150 μg/cm^2/h | 20 mg/L | 40 min | 300 mg/kg | – | – | – | – | – | – | % (rate of writhing inhibition) [2, 8]: 59%; No. of Writhing [2, 8]: 14.2; body temperature, t = 0 min ([3]; 50 mg/kg transdermally): 37.28 ± 0.06; body temperature, t = 90 min ([3]; 50 mg/kg transdermally): 36.65 ± 0.06; body temperature, t = 180 min ([3]; 50 mg/kg transdermally): 36.58 ± 0.08; body temperature, t = 270 min ([3]; 50 mg/kg transdermally): 36.60 ± 0.07
7 | CC(=O)O.CCN(CC)CCOC(=O)C(C)c1ccc2c(c1)Cc1cccnc1O2 (stereo not drawn) [diethylaminoethyl α-methyl-5H-[1]benzopyrano[2,3-b]pyridine-7-acetate.AcOH] | 3800 μg/cm^2/h | 2000 mg/L | 50 min | – | 54% | 16.1 | 37.27 ± 0.06 | 36.76 ± 0.05 | 36.65 ± 0.08 | 36.49 ± 0.07 | LD50 of HPP ([5]; rat, in vivo): 750 mg/kg
8 | CC(=O)O.CCN(CC)CCOC(=O)C(C)c1ccc(CC(C)C)cc1 (stereo not drawn) [diethylaminoethyl 2-(ρ-isobutylphenyl) propionate.AcOH] | 1250 μg/cm^2/h | 120 mg/L | 30 min | 1800 mg/kg | 71% | 9.8 | 37.27 ± 0.06 | 36.30 ± 0.06 | 36.35 ± 0.08 | 36.31 ± 0.07 | % (rate of writhing inhibition) [2, 9]: 59%; No. of Writhing [2, 9]: 14.1; % (rate of writhing inhibition) [2, 8]: 61%; No. of Writhing [2, 8]: 13.3; % (rate of writhing inhibition) [2, 10]: 70%; No. of Writhing [2, 10]: 10.2; body temperature, t = 0 min ([3]; 100 mg/kg orally): 37.22 ± 0.07; body temperature, t = 90 min ([3]; 100 mg/kg orally): 36.40 ± 0.06; body temperature, t = 180 min ([3]; 100 mg/kg orally): 36.50 ± 0.05; body temperature, t = 270 min ([3]; 100 mg/kg orally): 36.45 ± 0.08; body temperature, t = 0 min ([3]; 150 mg/kg orally): 37.24 ± 0.08; body temperature, t = 90 min ([3]; 150 mg/kg orally): 36.30 ± 0.05; body temperature, t = 180 min ([3]; 150 mg/kg orally): 36.35 ± 0.07; body temperature, t = 270 min ([3]; 150 mg/kg orally): 36.38 ± 0.08; body temperature, t = 0 min ([3]; 150 mg/kg transdermally): 37.26 ± 0.05; body temperature, t = 90 min ([3]; 150 mg/kg transdermally): 36.25 ± 0.05; body temperature, t = 180 min ([3]; 150 mg/kg transdermally): 36.30 ± 0.07; body temperature, t = 270 min ([3]; 150 mg/kg transdermally): 36.20 ± 0.05
9 | C=C(C)CNc1ccc(C(C)C(=O)OCCN(CC)CC)cc1.CC(=O)O (stereo not drawn) [diethylaminoethyl α-methyl-4-[(2-methyl-2-propenyl)amino]benzeneacetate.AcOH] | 3500 μg/cm^2/h | 2000 mg/L | 50 min | 1100 mg/kg | 55% | 15.6 | 37.23 ± 0.06 | 36.69 ± 0.06 | 36.52 ± 0.08 | 36.40 ± 0.07 | –
10 | CN(C)CCCC(=O)OC1=C(C(=O)Nc2ccccn2)N(C)S(=O)(=O)c2cc(Cl)sc21.Cl [6-chloro-4-N,N-dimethylaminobutyryloxy-2-methyl-N-2-pyridinyl-2H-thieno[2,3-e]-1,2-thiazine-3-carboxamide 1,1-dioxide.HCl] | 1600 μg/cm^2/h | 20 mg/L | – | 580 mg/kg | – | – | – | – | – | – | % (rate of writhing inhibition) [2, 6]: 53%; No. of Writhing [2, 6]: 16.5; body temperature, t = 0 min ([3]; 25 mg/kg transdermally): 37.55 ± 0.05; body temperature, t = 90 min ([3]; 25 mg/kg transdermally): 36.66 ± 0.06; body temperature, t = 180 min ([3]; 25 mg/kg transdermally): 36.60 ± 0.06; body temperature, t = 270 min ([3]; 25 mg/kg transdermally): 36.61 ± 0.07
11 | CC(=O)O.CCN(CC)CCOC(=O)c1cccnc1Nc1cccc(C(F)(F)F)c1 [diethylaminoethyl 2-[[3-(trifluoromethyl)phenyl]amino]-3-pyridinecarboxylate.AcOH] | 1800 μg/cm^2/h | 20 mg/L | 50 min | 750 mg/kg | – | – | 37.25 ± 0.07 | 36.82 ± 0.06 | 36.70 ± 0.05 | 36.50 ± 0.08 | % (rate of writhing inhibition) [2, 11]: 57%; No. of Writhing [2, 11]: 15.2
12 | CC(=O)O.CCN(CC)CCOC(=O)Cc1cccc(C(=O)c2ccccc2)c1N [diethylaminoethyl 2-amino-3-benzoylbenzeneacetate.AcOH] | 800 μg/cm^2/h | 20 mg/L | 50 min | 1000 mg/kg | 61% | 13.8 | 37.22 ± 0.06 | 36.65 ± 0.05 | 36.62 ± 0.08 | 36.58 ± 0.07 | –
13 | CC(=O)O.CCN(CC)CCOC(=O)c1cccnc1Nc1cccc(C(F)(F)F)c1C [diethylaminoethyl 2-[[2-methyl-3-(trifluoromethyl)phenyl]amino]-3-pyridinecarboxylate.AcOH] | 1700 μg/cm^2/h | 20 mg/L | 50 min | 1100 mg/kg | – | – | 37.23 ± 0.06 | 36.69 ± 0.06 | 36.52 ± 0.08 | 36.40 ± 0.07 | % (rate of writhing inhibition) [2, 11]: 55%; No. of Writhing [2, 11]: 15.7
